Source: patent publication US7579477B2, “Thiazole-based nitric oxide donors having alkyl substituent(s) and uses thereof” (priority 2004, dated 2009)
Entries after “also recorded” stand apart in the source; their conditions may differ.

Columns and labels:
[1] = tested on: c-GMP in aortic rat tissue; experiment: Cyclic-GMP measurement in aortic rat tissue (radioimmunoassay); type: cell-based; conditions: for levels of cGMP as compared with GTN: isolated rat aorta, FIGS. 25, 27, 33
Description: GTN (10^−6 M) was added to the chamber and, 1 minute after exposure to the drug, rings (usually 3-5) were taken, wrapped with aluminum foil and immediately frozen in liquid nitrogen for storage. Control sample group was treated with the vehicle solution only. At the time of analysis, rings were thawed, blotted over a dry gauzed and weighted. A known weight of tissue was homogenized in 2 ml ice-cold modified Hank's balanced salt solution containing (in gram/liter) NaCl 8; KCl 0.4; glucose 1; KH2PO4 0.06; Na2HPO4 0.047; Phenol red 0.017 and further containing 25 mM EDTA (disodium salt). The homogenate was centrifuged at 4000 g (force units) for 10 minutes at 2-4° C. and the supernatant was thereafter transferred into fresh pre-cooled test tube containing 1 ml of acetonitrile. The tubes were vortex mixed for a few seconds and subsequently centrifuged at 4000 g for 5 minutes at 2-4° C., to remove the precipitated protein. Each supematant was transferred into a clean test tube and evaporated to dryness under a stream of nitrogen at 55° C. The dry residue was reconstituted with 10 volumes of Tris-EDTA buffer pH 7.5 (0.05 M Tris containing 4 mM EDTA). Aliquots of 100 μl of the reconstituted solution in duplicate were used for c-GMP measurements using Amersham RIA kit, as is described in Haj-Yehia & Benet [Pharmacology, 1995, 273, 1, pp. 94-100]. Standard curves were plotted with six concentrations (0, 0.5, 1, 2, 4 and 8 pmoles of c-GMP per tube).

[2] = tested on: isolated rat aorta; experiment: In vitro induction of tolerance to NO releasing compounds (vasorelaxation after pre-exposure); type: cell-based; conditions: rat aorta pre-treated with epinephrine and then with the compound (0.44 mM) versus control
Description: Aortic rings were prepared as described hereinabove, and were exposed to 0.44 mM GTN (vehicle was water:ethanol:propyleneglycol at proportional ratio of 1:1:1) for 1 hour before CCRC construction, to thereby induce tolerance to nitroglycerine. At the end of the tolerance induction period, rings were thrice washed with the path buffer (Krebs-bicrbonate) every 15 minutes for the following hour and then CCRC for vasorelaxation on GTN-induced tolerance rings were constructed for GTN (pretreated versus untreated rings, FIG. 15), in order to verify the ability to induce and measure GTN tolerance induction in vitro
Attempted induction of tolerance to the NO-donating compounds of the present invention was performed under the same conditions as for GTN. Thus, in an exemplary experiment, rings were exposed to 0.44 mM solution of Pet-3 in the attempt to induce tolerance for Pet-3. CCRC were then measured for the vasorelaxing effect of Pet-3 on a group of rings which were pre-exposed to Pet-3 as to induce tolerance to Pet-3, and for an untreated control group. The above protocol was repeated with Pet-2, Pet-7, Pet-8, Pet-12, Pet-24, Pet-43, Pet-149 and Pet-152.

[3] = tested on: isolated rat aorta; experiment: In vitro vasorelaxation of rat aortic rings contracted with epinephrine; type: cell-based; conditions: isolated rat aorta pre-treated in vitro with 1 μM epinephrine; figure legends
Excerpt: Male Sprague Dawley rats were anaesthetized using intraperitoneal injection of ketamine and xylazine (50 and 10 milligram per kilogram, respectively) and the thoracic aorta, the large upper portion of the descending aorta, starting at the caudal border of the chest bone, was removed thereafter, while carefully removing the paraadventetial tissue surrounding the vessel. Aortae were cut into rings of 4-5 millimeters and mounted onto the tissue path. The path buffer (Krebs-bicrbonate) was constantly gassed with carbogen and maintained at 37° C. The rings were preloaded under 2 g tension and equilibrated for 90 minutes, while refreshing the buffer every 15 minutes. After stabilization, the rings were contracted with epinephrine (1 μM). Cumulative Concentration-Response Curves (CCRC) were measured for the vasorelaxing effect induced by adding various concentrations, ranging from 10^−10 M to 10^−5 M of Pet-2, Pet-3, Pet-7, Pet-8, Pet-12, Pet-24, Pet-43, Pet-59, Pet-147, Pet-152 and Pet-154, and glyceryltrinitrate (GTN), according to the procedure described in Feelich et al., Molecular Pharmacology, 56:243-253 (1999). The vehicle, which was used for this experiment was water:ethanol:propyleneglycol at proportional ratio of 1:1:1.

[4] = tested on: mean arterial blood pressure of rats; experiment: Hypotensive effects: mean arterial pressure after iv bolus; type: in vivo, rat; conditions: anesthetized rats, phenylephrine, iv bolus doses
Description: Mean arterial pressure (MAP) was monitored and determined during bolus infusion of Pet-2, Pet-3, Pet-7, Pet-8, Pet-12 and Pet-13. Briefly, polyethylene catheters (PE50) were inserted into the carotid artery and into the jugular vein of anesthetized hypertensive Sprague-Dawley male rats (200-300 grams). A blood pressure recorder was placed within the carotid artery. Phenylephrine (0.1 mg) was then injected and the mean arterial blood pressure (MABP) was monitored continuously until a stable baseline was reached. The hypotensive effects of intravenous (iv) bolus doses (0.1 mg of each tested compound) administered intravenously at the jugular vein in minimal volume of vehicle (0.2 ml per dose) were evaluated. Five minutes were allowed between each dose, during which the maximal decrease in MAP was recorded and a dose-response graph comparing the hypotensive effect of the compounds was constructed.

[5] = tested on: cGMP in isolated aorta of rats pre-treated in vivo; experiment: Induction of in vivo nitrate tolerance (cGMP in aorta after 16 hour infusion); parameters: species or system rat; conditions: for tolerance induction in vivo: cGMP accumulation in aorta of rats pre-treated in vivo, FIGS. 24, 26
Description: For c-GMP levels and tolerance development, the rat's thoracic aorta was isolated after exposure to the tested compound in vivo, and measured as described above in the in vitro assays.
Male Sprague Dawley rats (220 to 250 grams) were housed under constant temperature and humidity conditions. Light was maintained at a 12/12 light dark cycle. Except for 12 hours before the experiment, when food fasting was initiated, all rats had free access to standard rat pellet diet and tap water. The animals were anesthetized by intraperitoneal injection of ketamine and xylazine combination (50 and 10 milligram per kilogram, respectively). […] The catheters were filled with normal saline solution containing 1000 IU/ml of heparin and plugged with a metal pin. Catheters were externalized to the back of the neck region and secured by a polyester felt disk.
After implantation, the rats were individually housed until they regained their preoperative weight and appeared healthy (3 to 4 days post-operation). At this time point (day 0), an osmotic mini-pump (Alza Corp., Palo Alto, Calif.) delivering constant volume (10 μl/hour) of vehicle or drug was connected to one of the intravenous catheters.
For inducing tolerance to the tested NO-donor according to the present invention, the animals received 200 μg/hour of the tested compound for 16 hours (short-term-induced tolerance). A similar number of animals were processed by the same surgical procedure and received the vehicle alone (10 μl/hour of a solution consisting of 30% ethanol and 30% propylene glycol in sterile distilled water for injection).
At the end of the infusion periods used for the development of tolerance (16 hour), the rats were anesthetized as described above, the two catheters were externalized and the delivering catheters were disconnected from the mini-pump. The abdomen was opened by midline incision and the thoracic aorta were isolated, washed and cleaned from the surrounding tissues. […]

[6] = tested on: isolated rat aorta; experiment: Cross-tolerance study GTN / Pet-12 on aortic rings; type: cell-based
Description: Cross-tolerance studies were conducted using the same technique described above for measuring vasorelaxation of aortic rings from rats. Two groups of aortic rings samples were pre-treated with GTN, then one group was measured for vasorelaxation by GTN and the second group for vasorelaxation by Pet-12, an exemplary NO-donor according to the present invention. For the opposite cross-tolerance studies, two groups of aortic rings samples were pre-treated with Pet-12, then one group was measured for vasorelaxation by GTN and the second group for vasorelaxation by Pet-12.

SMILES | levels of cGMP as compared with GTN [1] | tolerance induction in vitro [2] | vasorelaxation effect as compared with glyceryltrinitrate [3] | hypotensive effect on MAP following successive administrations [4] | other results
Cc1nc(C)c(CCO[N+](=O)[O-])s1 [Pet-3, 2,4-Dimethyl-5-(2-nitrooxy-ethyl)-thiazole] | increased levels of cGMP | absence of tolerance induction | superior | consistent and reproducible | –
Cc1nc(N)sc1CCO[N+](=O)[O-] [Pet-10, 4-methyl-5-(2-nitrooxy-ethyl)-thiazole-2-ylamine] | increased levels of cGMP | – | – | – | –
CNc1cncc(-c2nc(C)c(CCO[N+](=O)[O-])s2)n1 [Pet-24, Methyl-{6-[4-methyl-5-(2-nitrooxy-ethyl)-thiazol-2-yl]-pyrazin-2-yl}-amine] | increased levels of cGMP | absence of tolerance induction | – | – | –
Cc1nc(-c2ccccc2)sc1CCO[N+](=O)[O-] [Pet-8, 4-Methyl-5-(2-nitrooxy-ethyl)-2-phenyl-thiazole] | increased levels of cGMP | – | superior | consistent and reproducible | –
Cc1nc(N(C)C)sc1CCO[N+](=O)[O-] [Pet-7, Dimethyl-[4-methyl-5-(2-nitrooxy-ethyl)-thiazol-2-yl]-amine] | increased levels of cGMP | absence of tolerance induction | – | consistent and reproducible | –
Cc1nc(-c2ccc(C(F)(F)F)cc2)sc1CCO[N+](=O)[O-] [Pet-59, 4-Methyl-5-(2-nitrooxy-ethyl)-2-(4-trifluoromethyl-phenyl)-thiazole] | increased levels of cGMP | – | superior | – | –
C=CCNc1nc(C)c(CCO[N+](=O)[O-])s1 [Pet-155, allyl-[4-methyl-5-(2-nitrooxy-ethyl)-thiazol-2-yl]-amine] | increased levels of cGMP | – | superior | – | –
Cc1nc(Nc2nc(C)c(CCO[N+](=O)[O-])s2)sc1CCO[N+](=O)[O-] [Pet-43, Bis-[4-methyl-5-(2-nitrooxy-ethyl)-thiazol-2-yl]-amine] | – | absence of tolerance induction | superior | – | –
Cc1nc(Nc2cccc3ccccc23)sc1CCO[N+](=O)[O-] [Pet-149, [4-Methyl-5-(2-nitrooxy-ethyl)-thiazol-2-yl]-naphthalen-1-yl-amine] | increased levels of cGMP | absence of tolerance induction | superior | – | –
Cc1nc(-c2cccnc2)sc1CCO[N+](=O)[O-] [Pet-12, 3-[4-Methyl-5-(2-nitrooxy-ethyl)-thiazole-2-yl]-pyridine] | – | absence of tolerance induction | – | consistent and reproducible | tolerance induction in vivo [5]: absence of tolerance induction; also recorded: lack of tolerance induction; effect of induced tolerance to GTN on vasorelaxation capacity ([6]; rings pre-treated with GTN): no effect; tolerance evoked by pre-treatment with Pet-12 ([6]; rings pre-treated with Pet-12, vasorelaxation by GTN or Pet-12): does not evoke tolerance to itself not to GTN
Cc1nc(NC(=O)c2cccnc2)sc1CCO[N+](=O)[O-] [Pet-154, N-[4-methyl-5-(2-nitrooxy-ethyl)-thiazol-2-yl]-nicotinamide] | increased levels of cGMP | – | – | – | –
Cc1nc(NC(=O)[C@@H](C)c2ccc(CC(C)C)cc2)sc1CCO[N+](=O)[O-] (stereo in doubt) [Pet-152, 2-(4-Isobutyl-phenyl)-N-[4-methyl-5-(2-nitrooxy-ethyl)-thiazol-2-yl]-propionamide] | increased levels of cGMP | – | superior | – | –
Cc1nc(CCCCc2nc(C)c(CCO[N+](=O)[O-])s2)sc1CCO[N+](=O)[O-] [Pet-13] | – | – | – | consistent and reproducible | –
O=[N+]([O-])OCC(CO[N+](=O)[O-])O[N+](=O)[O-] [GTN, glyceryl trinitrate, reference compound] | – | tolerance induced | – | attenuation | c-GMP level following a repeated treatment ([1]; rat aorta): significantly reduced; level of cGMP following a repeated treatment in vivo ([5]; aorta of rats infused in vivo, FIG. 24): decreased; tolerance induction in vivo [5]: tolerance inducing effect
CCNc1nc(C)c(CCO[N+](=O)[O-])s1 [Pet-147, Ethyl-[4-methyl-5-(2-nitrooxy-ethyl)-thiazol-2-yl]-amine] | increased levels of cGMP | – | – | – | –
